According to the OPERA property sets (Mansouri et al. 2018):
Converted amounts (≈) assume the structure as drawn.

Compound | logP | solubility (25 °C) [µM] | other results
CCc1ccccc1[N+](=O)[O-] | 2.58 | 1590 (≈ 240 µg/mL) | –
Clc1ccccn1 | – | 176000 (≈ 20000 µg/mL) | –
CCCCCCCCC#N | – | 503 (≈ 70 µg/mL) | –
Oc1c(Cl)cc(Cl)c(Cl)c1Cl | – | 99.2 (≈ 23 µg/mL) | –
Oc1c(Cl)cc(Cl)c2ccccc12 | 4.23 | – | –
Oc1cc(Cl)ccc1Oc1ccc(Cl)cc1Cl | 4.76 | – | –
CC(C)=CC=C(C)C | 3.5 | 290 (≈ 32 µg/mL) | –
CC(C)COc1ccc2ccccc2c1 | – | – | solubility: 6.14 µM (≈ 1.23 µg/mL)
c1ccc(Nc2cccc3ccccc23)cc1 | – | 274 (≈ 60 µg/mL) | –
Cc1cc(=O)nc(C(C)C)[nH]1 | 0.55 | – | –
ClC1C(Br)C(Br)C(Br)C(Br)C1Br (stereo not drawn) | 4.72 | – | –
S=C(SSSSC(=S)N1CCCCC1)N1CCCCC1 | 2.8 | – | –
Nc1ccc(Cc2ccc(N)c(Cl)c2)cc1Cl | 3.91 | – | –
COc1ccc(C(=O)c2ccccc2)c(O)c1 | 3.79 | – | –
CC(C)(C)C(=O)O | 1.48 | – | –
OCc1ccc(Cl)c(Cl)c1 | 2.74 | 9040 (≈ 1600 µg/mL) | –
C=C(C)CC(C)(C)C | 4.55 | – | –
O=P(OCCCl)(OCCCl)OCCCl | 1.44 | – | –
CCCCCC(=O)CCCCC | – | 294 (≈ 50 µg/mL) | –
CC(CCl)OP(=O)(OC(C)CCl)OC(C)CCl (stereo not drawn) | 2.59 | 3660 (≈ 1200 µg/mL) | –
CCNc1cccc2ccccc12 | 3.45 | 642 (≈ 110 µg/mL) | –
COc1c(N)cccc1[N+](=O)[O-] | 1.78 | – | –
Cc1cc(C)c(O)c(C)c1 | – | 8810 (≈ 1200 µg/mL) | –

Compound | logP | solubility (25 °C) [µM] | other results
BrCC(CBr)(CBr)CBr | 3.99 | – | –
Nc1c(Cl)cc(Cl)cc1Cl | – | 204 (≈ 40 µg/mL) | –
COc1ccc(N)c([N+](=O)[O-])c1 | 1.94 | 714 (≈ 120 µg/mL) | –
O=C(O)c1ccccc1-c1ccccc1C(=O)O | – | 5200 (≈ 1260 µg/mL) | –
N#CSCSc1nc2ccccc2s1 | 3.3 | – | –
ClCC(Br)CBr (stereo not drawn) | 2.96 | – | –
COC(C)CCOC(C)=O (stereo not drawn) | – | – | solubility (20 °C): 31500 µM (≈ 4600 µg/mL)
OCC(O)c1ccccc1Cl (stereo not drawn) | 1.17 | – | –
O=[N+]([O-])c1ccc(Cl)cc1C(F)(F)F | 3.2 | 443 (≈ 100 µg/mL) | –
Cc1ccc(Cl)c(O)c1 | 2.9 | – | –
CCN(CC)c1ccc2c(-c3ccccc3C(=O)O)c3ccc(N(CC)CC)cc3[o+]c2c1.[Cl-] | 1.95 | – | –
Cc1ccc(C(C)(C)C)cc1 | 5.17 | – | –
N#CCc1ccccc1 | – | 854 (≈ 100 µg/mL) | –
C=C(C)CCl | – | 15500 (≈ 1400 µg/mL) | –
CCc1cccc(CC)c1 | – | 179 (≈ 24 µg/mL) | –
COc1ccccc1OCC(O)COC(N)=O (stereo not drawn) | 0.61 | – | –
ClC(Cl)C(Cl)C(Cl)Cl | 3.23 | 1900 (≈ 410 µg/mL) | –
CC(C)CNCC(C)C | – | 17000 (≈ 2200 µg/mL) | –
OCC(CO)(CBr)CBr | – | 145000 (≈ 38000 µg/mL) | –
Oc1cc(Cl)ccc1Cl | – | 12300 (≈ 2000 µg/mL) | –
C=CC(=C)CCC=C(C)C | 4.17 | 41.1 (≈ 5.6 µg/mL) | –
O=C(OOC(=O)c1ccccc1)c1ccccc1 | – | 37.6 (≈ 9.1 µg/mL) | –
C=Cc1cccc(CC)c1 | 4.11 | – | –

Compound | logP | solubility (25 °C) [µM] | other results
CC(C)CCOCCC(C)C | 4.25 | – | –
O=C1c2ccccc2-c2cccc3cccc1c23 | 4.81 | – | –
Cc1ccc(O)c([N+](=O)[O-])c1 | – | 4130 (≈ 633 µg/mL) | –
Oc1ccc(Cc2ccccc2)cc1 | 3.47 | 397 (≈ 73.2 µg/mL) | –
CCCCC(CC)CN1C(=O)C2C(C1=O)C1(C(C)C)C=CC2(C)CC1 (stereo not drawn) | 5.96 | – | –
O=C1CCCCC1C1=CCCCC1 (stereo not drawn) | 3.17 | – | –
Nc1cccc2cccc(N)c12 | – | 5370 (≈ 850 µg/mL) | –
O=C(O)c1ccc2ccccc2c1 | – | 273 (≈ 47 µg/mL) | –
CCOC(=O)C(O)(c1ccc(Cl)cc1)c1ccc(Cl)cc1 | 4.74 | – | –
O=C1CCCCCCCCCCCN1 | 2.92 | 1470 (≈ 290 µg/mL) | –
C=C(C)C(=O)OCC(CC)(COC(=O)C(=C)C)COC(=O)C(=C)C | 4.39 | – | –
COC(=O)c1cccc(C(=O)OC)c1 | – | – | solubility: 1490 µM (≈ 290 µg/mL)
COc1ccc(O)cc1 | – | 322000 (≈ 40000 µg/mL) | –
CCCCNCCCC | – | 36400 (≈ 4700 µg/mL) | –
CC(C)(O)CCCC1=CCC(C=O)CC1 (stereo not drawn) | – | – | solubility: 29000 µM (≈ 6100 µg/mL)
COc1cccc([N+](=O)[O-])c1 | – | 3270 (≈ 500 µg/mL) | –
CN(C)Cc1ccccc1 | – | 88800 (≈ 12000 µg/mL) | –
Nc1cccc2c(N)cccc12 | – | 2400 (≈ 380 µg/mL) | –
Nc1cccc2c1C(=O)c1ccccc1C2=O | 3.74 | – | –
Cc1ccsc1 | – | 4070 (≈ 400 µg/mL) | –
CCCCOCCOCCOC(C)=O | – | 220000 (≈ 44900 µg/mL) | –
